The values that follow come from patent publication US5478726A, “Mycobacterial recombinants and peptides” (priority 1992, dated 1995).

Data set [1] deals with T cell clone A7JM. To be noted: A7JM against macrophages pulsed with the antigen; 7 days.
In data set [2] the test system is T cell clone K8AH. The settings on record: K8AH against macrophages pulsed with the antigen; 7 days.
Data set [3] relates to serum from human patients known to be infected with M. tuberculosis. It is filed as binding. To be noted: Western blot; preliminary studies. (A western blot detects proteins with antibodies after separation by electrophoresis.)

In turn, `CC[C@H](C)[C@H](NC(=O)[C@H](Cc1ccc(O)cc1)NC(=O)[C@@H]1CCCN1C(=O)[C@H](CC(=O)O)NC(=O)[C@H](CCC(=O)O)NC(=O)[C@H](CC(C)C)NC(=O)[C@@H](NC(=O)[C@H](C)N)C(C)C)C(=O)N[C@@H](CC(C)C)C(=O)N[C@@H](CC(C)C)C(=O)N[C@H](C(=O)N[C@@H](CO)C(=O)N[C@@H](CO)C(=O)N[C@@H](CCCCN)C(=O)N[C@H](C(=O)O)C(C)C)C(C)C` [Peptide 22, A V L E D P Y I L L V S S K V] showed a Cytotoxicity in data set [1] of 82.7 ± 10 percentages.
Molecule `CC[C@H](C)[C@H](NC(=O)[C@@H](NC(=O)[C@H](CCCCN)NC(=O)[C@H](CCC(=O)O)NC(=O)[C@H](CC(C)C)NC(=O)[C@H](CC(C)C)NC(=O)[C@@H]1CCCN1C(=O)[C@H](CC(C)C)NC(=O)[C@@H](N)CC(C)C)C(C)C)C(=O)NCC(=O)N[C@@H](C)C(=O)NCC(=O)N[C@@H](CCCCN)C(=O)N1CCC[C@H]1C(=O)N[C@@H](CC(C)C)C(=O)O` [Peptide 24, L L P L L E K V I G A G K P L] gave a Cytotoxicity in data set [2] of 86.5 ± 0.6 percentages.
For “purified recombinant 65KD protein: purified recombinant 65KD (540 amino acid residue) protein of M. tuberculosis”, the “Immunoreaction with antisera from infected patients” value in data set [3] is “immunoreacted”.
